The target in assay [1] is T1, human recombinant full-length Btk enzyme (Homo sapiens, UniProt Q06187). Description: Omnia Continuous Read Kinase Assay, Btk inhibition. Format: biochemical. Details: human recombinant full-length Btk enzyme. As to conditions: 30 minutes pre-incubation at 27° C.; 0.5 nM to 10 μM. An excerpt: The following Example describes testing certain compounds according to the invention for inhibition of BTK activity. The Omnia® Continuous Read Kinase Assay uses an unnatural amino acid chelation enhanced fluorophore (Sox; 8-hydroxy-5-(N,N-dimethylsulfonamido)-2 methylquinoline) incorporated into a kinase-specific peptide substrate to characterize Btk enzyme kinetics and inhibition. Following Btk-mediated phosphorylation, a sensitive, highly quantifiable increase in real-time fluorescence is noted based upon the ability of chelated Mg2+ to form a bridge between Sox and the phosphate group on a tyrosine residue of the peptide substrate. The Omnia® continuous read assay was performed essentially as described by the vendor (Invitrogen; Carlsbad, Calif.). First, a 10× stock of human recombinant full-length Btk enzyme was prepared in Kinase Reaction Buffer. 5 μL of the 10× enzyme was pre-incubated with 0.5 μL of serially diluted compound prepared in 50% DMSO, in a 384-well microtiter plate for 30 minutes at 27° C. 1.13×ATP and the Tyr5-Sox conjugated peptide substrate were prepared in 1× Kinase Reaction Buffer. Kinase reactions were initiated by the addition of 45 μL of the 1.13×ATP-Sox peptide substrate master mix and monitored every 30 to 90 seconds for 60 minutes at λex360/λem485 in a Synergy plate reader. The IC50 values for each compound assayed were determined from test concentrations of 0.5 nM to 10 μM in half-log intervals performed in duplicate.
At the conclusion of each assay, progress curves from each well were examined for linear reaction kinetics and fit statistics (R2, 95% confidence interval, absolute sum of squares) using GraphPad software (GraphPad Prism version 5.01; San Diego, Calif.). Initial velocity (0 minutes to ˜30+ minutes) from each reaction was determined from the slope of a plot of relative fluorescence units versus time (minutes). Using control normalized % inhibition data, plots were constructed against inhibitor concentration to estimate IC50 from log [inhibitor] versus response using a variable slope model in GraphPad. The compound numbers correspond to the compound numbers in Table 1.

Another assay deals with T2, BTK (Homo sapiens, UniProt Q06187).
T2 construct: endogenous in cells; host or cells: Ramos cells
Description: Btk target site occupancy, covalent probe ELISA in Ramos cells. Format: cell-based. The settings on record: 1 hour at 37° C., 0.09-200 nM, read-out: Ramos cell EC50 (nM), BTK occupancy. Here is the method:
A covalent probe shown below was used in an ELISA assay to determine occupancy of the target BTK by certain compounds according to the invention.
Ramos cells were incubated in serum-free RPMI medium for 1 hour (˜2×10^6 cells/mL in 2 mL). Test compounds were diluted from a 10 mM DMSO stock solution, to achieve a final concentration of 0.09, 0.27, 0.82, 2.47, 7.42, 22.2, 66, and 200 nM. Cells were then incubated for 1 hour at 37° C. Following incubation, cells were spun at 1100 RPM for 5 minutes then washed in 200 μL of chilled PBS. Following the wash, cells were spun at 1100 RPM for 5 minutes. The supernatant was aspirated and then cells were resuspended in lysis buffer containing protease and phosphatase inhibitors. This was followed by centrifugation for 15 minutes at 14000 RPM at 4° C. Supernatant was transferred to a fresh tube. Lysates were stored at −80° C. until assayed.
Samples were thawed and mixed well by vortexing for 5 seconds. 60 μL of each sample was added into the 96-well mixing plate followed by addition of 60 μL of covalent probe solution (2 μM probe in PBS+0.05% Tween-20+1% BSA; 1:2 sample dilution) to each well containing sample. An adhesive cover was then placed on the plate followed by mixing of the plate on a shaker for 1 hour at room temperature. The streptavidin plate was pre-washed 3 times with PBS+0.05% Tween-20. 50 μL of the standards, QCs, and samples were then transferred from the mixing plate to the streptavidin plate. The plate was covered with an adhesive cover and mixed while shaking for 1 hour at room temperature. A 1:1000 dilution of the primary anti-Btk antibody (catalog #611116, Becton Dickinson; Franklin Lakes, N.J.) in PBS+0.05% Tween-20+0.5% BSA was prepared. The streptavidin plate was washed 3 times with PBS+0.05% Tween-20 and 50 μL/well of diluted anti-Btk antibody was then pipetted into the streptavidin plate. The plate was covered and incubated for 1 hour at room temperature. A 1:5000 dilution of secondary antibody (goat anti-mouse-HRP, catalog #62-6520, Zymed-Invitrogen; Carlsbad, Calif.) in PBS+0.05% Tween-20+0.5% BSA was prepared. The streptavidin plate was again washed 3 times with PBS+0.05% Tween-20 and 50 μL/well of diluted secondary antibody was pipetted into the streptavidin plate. The plate was covered and incubated for 1 hour at room temperature. The streptavidin plate was again washed 3 times with PBS+0.05% Tween-20 followed by the addition of 100 μL of TMB solution to each well. The plate was then read on a Synergy^2 plate reader at OD 650 nm until the OD maximum reached 1.0. This was followed by the addition of 100 μL of the Stop Solution. The plate was then read at OD 450 nm. A human recombinant Btk protein standard curve (11.7-3000 pg/μL) was plotted using a 4 parameter curve fit in GenS software (Version 1.05.11; Biotek; Winooski, Vt.;). The sample ODs were read against the standard curve to calculate free protein amounts.
Data were generated as ODs on an ELISA plate reader (Synergy^2, BioTek; Winooski, Vt.). Uninhibited Btk captured by the biotinylated covalent probe was quantitated and normalized to untreated control samples. Results were expressed as % Btk occupancy. EC50 values were generated using a 4 parameter curve fit analysis in GraphPad Prism version 5.0.
For orientation: In an ELISA, binding on a coated surface is turned into a signal by an enzyme label.

In assay [2] the target is T1, human recombinant full-length Btk enzyme. Briefly: Covalent bonding assay, intact protein MALDI mass spectrometry. Format: binding. More on the design: The full-length recombinant human Btk protein; purchased Invitrogen Lot #619547Q (catalogue number not given). As to conditions: percentage of total protein covalently modified after one hour incubation, 10-fold excess of compound, room temperature. The procedure: The following example describes testing certain compounds to determine whether they covalently bind to BTK. The full-length recombinant human Btk protein (Lot #619547Q; 0.35 mg/mL) was obtained from Invitrogen (Carlsbad, Calif.). Btk protein was diluted 2:3 in phosphate-buffered saline and stock concentration (10 mM) of compound was diluted 1:115 in 50% DMSO.
For all compounds, 1 μL of diluted compound was added to 5 μL of diluted protein. These mixtures were then incubated for 60 minutes at a 10-fold excess of compound to protein under room temperature (˜24° C.) conditions.
At the end of the incubation, 5 μL aliquots of the samples were diluted with 15 μL of 0.2% TFA prior to micro C4 ZipTipping® directly onto the MALDI target plate using sinapinic acid as the desorption matrix (10 mg/mL in 0.2% TFA:Acetonitrile 50:50). Samples were immediately analyzed on an ABSciex 4800 MALDI TOF-TOF mass spectrometer.
For intact protein mass measurement, the mass spectrometer was set in linear mode using a pulsed extraction setting of 81,500. Bovine serum albumin (BSA; Sigma, St Louis, Mo.) was used as the standard to calibrate the instrument. These values correspond to the percentage of total protein covalently modified by the tested compound after one hour incubation.

In assay [3] the test system is TNF-α, IL-1β, and other inflammatory cytokines. As to conditions: LPS-stimulated hPBMC and human whole blood; cited from earlier work.

Here are results for eleven compounds from patent publication US9415049B2, “Heteroaryl compounds and uses thereof” (Celgene Avilomics Research, Inc., priority 2013, dated 2016).

T1 sequence (Q06187 whole entry): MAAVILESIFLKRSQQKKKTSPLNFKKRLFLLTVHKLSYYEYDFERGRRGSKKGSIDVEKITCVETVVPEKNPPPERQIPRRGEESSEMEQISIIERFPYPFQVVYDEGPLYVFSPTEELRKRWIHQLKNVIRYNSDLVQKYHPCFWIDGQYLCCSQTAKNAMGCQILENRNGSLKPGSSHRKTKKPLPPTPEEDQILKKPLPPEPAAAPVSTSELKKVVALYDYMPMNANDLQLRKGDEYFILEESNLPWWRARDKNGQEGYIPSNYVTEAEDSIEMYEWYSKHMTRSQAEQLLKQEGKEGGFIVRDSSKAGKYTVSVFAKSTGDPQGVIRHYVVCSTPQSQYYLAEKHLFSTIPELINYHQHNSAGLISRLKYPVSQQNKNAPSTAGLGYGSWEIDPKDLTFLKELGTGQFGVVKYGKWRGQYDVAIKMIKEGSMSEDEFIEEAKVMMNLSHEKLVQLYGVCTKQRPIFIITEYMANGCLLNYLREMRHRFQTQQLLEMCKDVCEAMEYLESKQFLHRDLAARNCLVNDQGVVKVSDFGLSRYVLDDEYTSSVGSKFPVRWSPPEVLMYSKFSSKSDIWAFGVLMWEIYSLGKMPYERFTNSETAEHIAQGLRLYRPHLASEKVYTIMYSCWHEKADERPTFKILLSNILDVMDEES
T2 sequence (Q06187 whole entry): as above

By IC50 is commonly meant the point on the concentration scale where inhibition reaches its midpoint. Usually EC50 stands for the concentration giving half of the maximal effect. Turning to `C=CC(=O)Nc1cccc(Nc2nc(Nc3ccc(OCC(=O)O)cc3)ncc2F)c1` [Compound I-2, 2-(4-((4-((3-acrylamidophenyl)amino)-5-fluoropyrimidin-2-yl)amino)phenoxy)acetic acid], the IC50 in assay [1] was at most 10 nM. For the same compound, the EC50 on BTK was above 200 nM.

Turning to `COCCOc1ccc(Nc2ncc(F)c(Nc3cccc(NC(=O)C(O)CO)c3)n2)cc1` (stereo not shown) [Compound I-4, N-(3-((5-fluoro-2-((4-(2-methoxyethoxy)phenyl)amino)pyrimidin-4-yl)amino)phenyl)-2,3-dihydroxypropanamide], the IC50 in assay [1] was 101 to 500 nM. The MS % modification result in assay [2] is reported as “C (<30% modification)”.

In the case of `O=C(Nc1cccc(Nc2nc(Nc3ccc(OCCO)cc3)ncc2F)c1)C(O)CO` (stereo not shown) [Compound I-5, N-(3-((5-fluoro-2-((4-(2-hydroxyethoxy)phenyl)amino)pyrimidin-4-yl)amino)phenyl)-2,3-dihydroxypropanamide], in assay [1], the IC50 was in the range of 101 to 500 nM. Besides, the MS % modification result in assay [2] is on record as “C (<30% modification)”.

For `O=C(Nc1cccc(Nc2nc(Nc3ccc(O)cc3)ncc2F)c1)C(O)CO` (stereo not shown) [Compound I-6, N-(3-((5-fluoro-2-((4-hydroxyphenyl)amino)pyrimidin-4-yl)amino)phenyl)-2,3-dihydroxypropanamide], in assay [1], the 50% inhibitory concentration (IC50) was in the range of 101 to 500 nM. The MS % modification result in assay [2] is “C (<30% modification)”.

With `C=CC(=O)Nc1cccc(Nc2nc(Nc3ccc(OCCOC)c(O)c3)ncc2F)c1` [Compound I-13, N-(3-((5-fluoro-2-((3-hydroxy-4-(2-methoxyethoxy)phenyl)amino)pyrimidin-4-yl)amino)phenyl)acrylamide], in assay [1], the IC50 is at most 10 nM. Further, the EC50 on BTK was below 50 nM.

Take `C=CC(=O)Nc1cccc(Nc2nc(Nc3ccc(OCCOC)cc3)ncc2F)c1O` [Compound I-18, N-(3-((5-fluoro-2-((4-(2-methoxyethoxy)phenyl)amino)pyrimidin-4-yl)amino)-2-hydroxyphenyl)acrylamide]: the IC50 in assay [1] is at most 10 nM. At BTK, the concentration for a half-maximal effect (EC50) is below 50 nM.

With `COCCOc1ccc(Nc2ncc(F)c(Nc3cccc(NC(=O)C4CO4)c3)n2)cc1` (stereo not shown) [Compound I-19, N-(3-((5-fluoro-2-((4-(2-methoxyethoxy)phenyl)amino)pyrimidin-4-yl)amino)phenyl)oxirane-2-carboxamide], the IC50 in assay [1] is at most 10 nM. The EC50 on BTK is below 10 nM. Also, in assay [2], the MS % modification result is reported as “A (>70% modification)”.

Consider `O=C(Nc1cccc(Nc2nc(Nc3ccc(OCCO)cc3)ncc2F)c1)C1CO1` (stereo not shown) [Compound I-22, N-(3-((5-fluoro-2-((4-(2-hydroxyethoxy)phenyl)amino)pyrimidin-4-yl)amino)phenyl)oxirane-2-carboxamide], for which the IC50 in assay [1] is at most 10 nM. Moreover, the EC50 at BTK was below 50 nM.

`C=CC(=O)N(C)c1cccc(Nc2nc(Nc3ccc(OCCO)cc3)ncc2F)c1` [Compound I-23, N-(3-((5-fluoro-2-((4-(2-hydroxyethoxy)phenyl)amino)pyrimidin-4-yl)amino)phenyl)-N-methylacrylamide]: in assay [1], the 50% inhibitory concentration (IC50) was at most 10 nM. Further, the EC50 on BTK was below 100 nM.

On to `C=CC(=O)Nc1cccc(N(C)c2nc(Nc3ccc(OCCO)cc3)ncc2F)c1` [Compound I-24], for which the IC50 in assay [1] was at most 10 nM. Besides, at BTK, the EC50 was below 10 nM.

For `Cc1nc2cccc(N)c2c(=O)n1C1CCC(=O)NC1=O` (stereo not shown) [compound of formula D, 3-(5-amino-2-methyl-4-oxo-4H-quinazolin-3-yl)-piperidine-2,6-dione], the “inhibition of TNF-α, IL-1β, and other inflammatory cytokines” value in assay [3] is recorded as “markedly inhibits”.
